Measured values from ChEMBL document CHEMBL1201862, “PubChem BioAssay data set” (2004).
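Grown in 96-well plates, cells were treated for 48 hours with each compound at five concentrations. Insufficient inhibition: endpoint recorded as highest concentration tested. At the GI50, growth is halved.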 Calls of active or inactive are those of the source. Cut-off read from the data, not from the text of the source: active = GI50 up to about 1.1 µM and inactive = higher.

Tests used:
Experiment in all cases: DTP human tumour cell line panel, 48 h
SF-268 = system: SF-268
UACC-62 = system: UACC-62
SK-MEL-28 = system: SK-MEL-28
COLO 205 = system: COLO 205
SK-OV-3 = system: SK-OV-3
SF-539 = system: SF-539
OVCAR-3 = system: OVCAR-3
HCT-116 = system: HCT-116
NCI-H460 = system: NCI-H460
NCI-H23 = system: NCI-H23
KM-20L2 = system: KM-20L2
OVCAR-8 = system: OVCAR-8
RXF 393 = system: RXF 393
UO-31 = system: UO-31
SK-MEL-5 = system: SK-MEL-5
K562 = system: K562
SNB-19 = system: SNB-19
ACHN = system: ACHN
OVCAR-4 = system: OVCAR-4
MCF7 = system: MCF7

Structure (SMILES) | GI50 (SF-268) | GI50 (UACC-62) | GI50 (SK-MEL-28) | GI50 (COLO 205) | GI50 (SK-OV-3) | GI50 (SF-539) | GI50 (OVCAR-3) | GI50 (HCT-116) | GI50 (NCI-H460) | GI50 (NCI-H23) | GI50 (KM-20L2) | GI50 (OVCAR-8) | GI50 (RXF 393) | GI50 (UO-31) | GI50 (SK-MEL-5) | GI50 (K562) | GI50 (SNB-19) | GI50 (ACHN) | GI50 (OVCAR-4) | GI50 (MCF7)
CNC(=O)c1cccc2c(Nc3ccc(NS(C)(=O)=O)cc3OC)c3cccc(C)c3nc12 | 0.114 µM (active) | 0.0631 µM (active) | 2.21 µM (inactive) | 0.542 µM (active) | 0.054 µM (active) | 0.0628 µM (active) | 1.39 µM (inactive) | 0.243 µM (active) | < 0.01 µM (active) | 0.0418 µM (active) | 0.409 µM (active) | 0.333 µM (active) | 0.533 µM (active) | 0.425 µM (active) | 0.131 µM (active) | 0.23 µM (active) | 0.0555 µM (active) | 0.014 µM (active) | 1.9 µM (inactive) | –
CC(=O)OC1C(CCl)OC(N=[N+]=[N-])C(OC(C)=O)C1OC(C)=O (stereo not drawn) | > 100 µM (inactive) | > 100 µM (inactive) | > 100 µM (inactive) | > 100 µM (inactive) | > 100 µM (inactive) | > 100 µM (inactive) | > 100 µM (inactive) | > 100 µM (inactive) | > 100 µM (inactive) | > 100 µM (inactive) | > 100 µM (inactive) | > 100 µM (inactive) | > 100 µM (inactive) | > 100 µM (inactive) | > 100 µM (inactive) | > 100 µM (inactive) | > 100 µM (inactive) | > 100 µM (inactive) | > 100 µM (inactive) | –
CP(C)C.[Ag][I] | > 100 µM (inactive) | > 100 µM (inactive) | 61.9 µM (inactive) | 47.9 µM (inactive) | > 100 µM (inactive) | > 100 µM (inactive) | > 100 µM (inactive) | 58.3 µM (inactive) | > 100 µM (inactive) | 85.3 µM (inactive) | > 100 µM (inactive) | 50 µM (inactive) | > 100 µM (inactive) | > 100 µM (inactive) | 15.4 µM (inactive) | > 100 µM (inactive) | > 100 µM (inactive) | > 100 µM (inactive) | 18.2 µM (inactive) | –
COc1ccc2[nH]cc(CCNC(C)=O)c2c1 [MELATONIN] | > 100 µM (inactive) | > 100 µM (inactive) | > 100 µM (inactive) | 29.9 µM (inactive) | > 100 µM (inactive) | > 100 µM (inactive) | > 100 µM (inactive) | > 100 µM (inactive) | > 100 µM (inactive) | > 100 µM (inactive) | > 100 µM (inactive) | > 100 µM (inactive) | > 100 µM (inactive) | > 100 µM (inactive) | > 100 µM (inactive) | 39.1 µM (inactive) | > 100 µM (inactive) | > 100 µM (inactive) | > 100 µM (inactive) | –
CC(C)(C)C(=O)OC12/C(=N/O)CCCCCC1c1ccccc12 (stereo not drawn) | 16.4 µM (inactive) | 17.4 µM (inactive) | 18.5 µM (inactive) | 17 µM (inactive) | 18.7 µM (inactive) | 23.2 µM (inactive) | 17.4 µM (inactive) | 14.4 µM (inactive) | 17.3 µM (inactive) | 16.6 µM (inactive) | 20.2 µM (inactive) | 19.3 µM (inactive) | 19.5 µM (inactive) | 17.1 µM (inactive) | 17.8 µM (inactive) | 19.5 µM (inactive) | 17.4 µM (inactive) | 17.9 µM (inactive) | 18.9 µM (inactive) | –
Cc1ccc(C2=Nc3ccccc3SC(c3cccc4c3OCO4)C2)cc1 (stereo not drawn) | 21.1 µM (inactive) | 20.3 µM (inactive) | 17.6 µM (inactive) | 18.3 µM (inactive) | 35.8 µM (inactive) | 20 µM (inactive) | 14.8 µM (inactive) | – | 31.3 µM (inactive) | 16.7 µM (inactive) | 21.3 µM (inactive) | 21.2 µM (inactive) | > 10 µM (inactive) | 14.1 µM (inactive) | 16.2 µM (inactive) | 14.8 µM (inactive) | 16.1 µM (inactive) | 20.4 µM (inactive) | 15.5 µM (inactive) | –
O=C1CCN2C(=Nc3cccc4cccc2c34)N1 | > 100 µM (inactive) | > 100 µM (inactive) | > 100 µM (inactive) | > 100 µM (inactive) | > 100 µM (inactive) | > 100 µM (inactive) | – | > 100 µM (inactive) | > 100 µM (inactive) | > 100 µM (inactive) | > 100 µM (inactive) | > 100 µM (inactive) | > 100 µM (inactive) | 73.8 µM (inactive) | > 100 µM (inactive) | > 100 µM (inactive) | > 100 µM (inactive) | > 100 µM (inactive) | > 100 µM (inactive) | –
CCOC(=O)C1=C(O)C(=O)c2ccsc2C1=O | > 100 µM (inactive) | > 100 µM (inactive) | > 100 µM (inactive) | > 100 µM (inactive) | > 100 µM (inactive) | > 100 µM (inactive) | > 100 µM (inactive) | > 100 µM (inactive) | > 100 µM (inactive) | > 100 µM (inactive) | > 100 µM (inactive) | > 100 µM (inactive) | > 100 µM (inactive) | > 100 µM (inactive) | > 100 µM (inactive) | > 100 µM (inactive) | > 100 µM (inactive) | > 100 µM (inactive) | > 100 µM (inactive) | –
COc1cccc(-c2cc(O)c3ccccc3n2)c1 | 10.3 µM (inactive) | 4.06 µM (inactive) | > 100 µM (inactive) | 4.93 µM (inactive) | 5.38 µM (inactive) | 3.57 µM (inactive) | 4.2 µM (inactive) | 5.53 µM (inactive) | 4.59 µM (inactive) | 7.52 µM (inactive) | 9.77 µM (inactive) | 6.24 µM (inactive) | 2.79 µM (inactive) | 6.18 µM (inactive) | 4.48 µM (inactive) | 4.72 µM (inactive) | 6.82 µM (inactive) | 6.92 µM (inactive) | > 100 µM (inactive) | –
CCc1c(CNc2ccc(C(=O)NC(CC(=O)O)C(=O)O)cc2)ccc2nc(N)nc(N)c12 (stereo not drawn) | < 0.0198 µM (active) | < 0.0177 µM (active) | 10.2 µM (inactive) | 16.7 µM (inactive) | > 20 µM (inactive) | < 0.0292 µM (active) | 10.1 µM (inactive) | < 0.01 µM (active) | < 0.0158 µM (active) | < 0.0291 µM (active) | 0.451 µM (active) | < 0.0184 µM (active) | > 4.65 µM (inactive) | 0.75 µM (active) | < 0.0346 µM (active) | < 0.01 µM (active) | 2.39 µM (inactive) | < 0.01 µM (active) | > 48.8 µM (inactive) | < 0.0182 µM (active)
C=C[C@@]12CCCCC1C/C(=C(/O)OC)C(=O)C2 (stereo partly drawn) | > 100 µM (inactive) | > 100 µM (inactive) | > 100 µM (inactive) | > 100 µM (inactive) | > 100 µM (inactive) | > 100 µM (inactive) | > 100 µM (inactive) | > 100 µM (inactive) | > 100 µM (inactive) | > 100 µM (inactive) | > 100 µM (inactive) | > 100 µM (inactive) | > 100 µM (inactive) | > 100 µM (inactive) | > 100 µM (inactive) | > 100 µM (inactive) | > 100 µM (inactive) | > 100 µM (inactive) | > 100 µM (inactive) | –
